Drawing on patent US20100056600A1, “11BETA-HSD1 ACTIVE COMPOUNDS” (priority 2007, published 2010), this text covers IC50 for eleven compounds.

For this assay, the target named is T1, h-11βHSD1 (Homo sapiens, UniProt P28845).
T1 construct: made in house
Put plainly: 11βHSD1 enzyme assay (SPA, 3H-cortisone to 3H-cortisol). The format is biochemical. The note with it: extract of yeast transformed with h-11βHSD1; 120 nM 3H-cortisone, 4 mM β-NADPH, 60 min at 30° C. The procedure:
^3H-cortisone and anti-rabbit Ig coated scintillation proximity assay (SPA) beads were purchased from Amersham Pharmacia Biotech, β-NADPH was from Sigma and rabbit anti-cortisol antibodies were from Fitzgerald. An extract of yeast transformed with h-11βHSD1 (Hutt et al., FEBS Lett, 441, 25 (1998)) was used as the source of enzyme. The test compounds were dissolved in DMSO (10 mM). All dilutions were performed in a buffer containing 50 mM TRIS-HCl (Sigma Chemical Co), 4 mM EDTA (Sigma Chemical Co), 0.1% BSA (Sigma Chemical Co), 0.01% Tween-20 (Sigma Chemical Co) and 0.005% bacitracin (Novo Nordisk A/S), pH=7.4. Optiplate 96 wells plates were supplied by Packard. The amount of ^3H-cortisol bound to the SPA beads was measured on TopCount NXT, Packard.
h-11βHSD1, 120 nM ^3H-cortisone, 4 mM β-NADPH, antibody (1:200), serial dilutions of test compound and SPA particles (2 mg/well) were added to the wells. The reaction was initiated by mixing the different components and was allowed to proceed under shaking for 60 min at 30° C. The reaction was stopped be the addition of 10 fold excess of a stopping buffer containing 500 μM carbenoxolone and 1 μM cortisone. Data was analysed using GraphPad Prism software.

T1 sequence (P28845 whole entry): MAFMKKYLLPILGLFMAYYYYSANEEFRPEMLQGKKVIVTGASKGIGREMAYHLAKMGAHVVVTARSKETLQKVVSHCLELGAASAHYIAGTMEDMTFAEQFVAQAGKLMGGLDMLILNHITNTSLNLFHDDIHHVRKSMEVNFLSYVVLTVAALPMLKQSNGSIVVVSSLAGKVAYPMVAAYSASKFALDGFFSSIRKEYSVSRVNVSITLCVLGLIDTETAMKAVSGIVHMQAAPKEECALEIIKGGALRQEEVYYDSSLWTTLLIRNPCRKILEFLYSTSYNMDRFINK

The compound `O=C(c1ccc2c(c1)-c1ccccc1C2)N1C2CCC1CC(O)C2` (single isomer, unassigned) [Example 1, (9H-Fluoren-3-yl)-(cis 3-hydroxy-8-aza-bicyclo[3.2.1]oct-8-yl)-methanone] displayed an IC50 of 8 nM. This counts as single-digit nanomolar. Consider `O=C(c1ccc2c(c1)-c1ccccc1C2)N1C2CCC1CC(O)C2` (single isomer, unassigned) [Example 2, (9H-Fluoren-3-yl)-(trans 3-hydroxy-8-aza-bicyclo[3.2.1]oct-8-yl)-methanone], for which inhibition was half-maximal at 246 nM (IC50).

`Cn1c2ccccc2c2cc(C(=O)N3C4CCC3CC(O)C4)ccc21` (centres unmarked) [Example 3, (3-Hydroxy-8-aza-bicyclo[3.2.1]oct-8-yl)-(9-methyl-9H-carbazol-3-yl)-methanone]: it took 6 nM to reach half-maximal inhibition (IC50). On to `O=C(c1ccc2[nH]c3ccccc3c2c1)N1C2CCC1CC(O)C2` (centres unmarked) [Example 4, (9H-Carbazol-3-yl)-(3-hydroxy-8-aza-bicyclo[3.2.1]oct-8-yl)-methanone], for which the IC50 worked out at 30 nM. Against the preceding compound, the IC50 is about 5-fold higher. In turn, `Cn1c2ccccc2c2cc(C(=O)N3CC4CC3CC4O)ccc21` (centres unmarked) [Example 5, (5-Hydroxy-2-aza-bicyclo[2.2.1]hept-2-yl)-(9-methyl-9H-carbazol-3-yl)-methanone] came in with an IC50 of 64 nM. `Cn1c2ccccc2c2cc(C(=O)N3CC4CC(O)CC3C4)ccc21` (centres unmarked) [Example 7, (3-Hydroxy-6-aza-bicyclo[3.2.1]oct-6-yl)-(9-methyl-9H-carbazol-3-yl)-methanone] displayed an IC50 of 360 nM.

Regarding `Cn1c2ccccc2c2cc(C(=O)N3CC4CC(O)C3C4)ccc21` (centres unmarked) [Example 9, (6-Hydroxy-2-aza-bicyclo[2.2.1]hept-2-yl)-(9-methyl-9H-carbazol-3-yl)-methanone], half-maximal inhibition (IC50) required 274 nM.

`O=C(c1ccc2[nH]c3ccccc3c2c1)N1CC2CC(O)C1C2` (centres unmarked) [Example 10, (9H-Carbazol-3-yl)-(6-hydroxy-2-aza-bicyclo[2.2.1]hept-2-yl)-methanone] registered an IC50 of 1030 nM. For `O=C(NC1C2CC3CC1CC(O)(C3)C2)c1ccc2[nH]c3ccccc3c2c1` (centres unmarked) [Example 11, 9H-Carbazole-3-carboxylic acid (5-hydroxy-adamantan-2-yl)-amide] the value was 29 nM. `CN(C(=O)c1ccc2c(c1)c1ccccc1n2C)C1C2CC3CC1CC(O)(C3)C2` (centres unmarked) [Example 12, 9-Methyl-9H-carbazole-3-carboxylic acid (5-hydroxy-adamantan-2-yl)-methyl-amide] displayed an IC50 of 41 nM. `CN(C(=O)c1ccc2[nH]c3ccccc3c2c1)C1C2CC3CC1CC(O)(C3)C2` (centres unmarked) [Example 13, 9H-Carbazole-3-carboxylic acid (5-hydroxy-adamantan-2-yl)-methyl-amide] displayed an IC50 of 76 nM.

One may read the IC50 as the concentration that gives 50% inhibition.
